Laboratory results from PMC6352943, “Novel pyrazolo[3,4-d]pyrimidines: design, synthesis, anticancer activity, dual EGFR/ErbB2 receptor tyrosine kinases inhibitory activity, effects on cell cycle profile and caspase-3-mediated apoptosis” (Journal of Enzyme Inhibition and Medicinal Chemistry, 2019).

How the values were obtained:
Experiment in all cases: NCI 60 cell line single dose screen (SRB)
Format in all cases: cell-based
SF-268 = conditions: Homo sapiens; SF-268 (CNS cancer), single dose 10^−5 M, 48 h; read-out: Growth inhibition percentage
Summary of the method: (§1)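 Cells were plated and grown 24 h at 37 °C, 5% CO2 before compound addition from DMSO stock, then exposed 48 h. Adherent cells were fixed with cold TCA (final 10%) and suspension cells with 16% TCA. SRB-stained protein was read at 515 nm and percent growth was calculated against time-zero and untreated plates.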

COLO 205 = conditions: Homo sapiens, COLO 205, 48 h; read-out: Growth inhibition percentage
Summary of the method: as §1

EKVX = conditions: Homo sapiens; EKVX (non-small cell lung cancer), single dose 10^−5 M, 48 h; read-out: Growth inhibition percentage
Summary of the method: as §1

OVCAR-3 = conditions: Homo sapiens; OVCAR-3 (ovarian cancer), single dose 10^−5 M, 48 h; read-out: Growth inhibition percentage
Summary of the method: as §1

LOX IMVI = conditions: Homo sapiens; LOX IMVI (melanoma), single dose 10^−5 M, 48 h; read-out: Growth inhibition percentage
Summary of the method: as §1

SF-593 = conditions: Homo sapiens, SF-593 (CNS cancer), single dose 10^−5 M, 48 h, read-out: Growth inhibition percentage
Summary of the method: as §1

SK-MEL-28 = conditions: Homo sapiens; SK-MEL-28 (melanoma), single dose 10^−5 M, 48 h; read-out: Growth inhibition percentage
Summary of the method: as §1

NCI-H23 = conditions: Homo sapiens; NCI-H23 (non-small cell lung cancer), single dose 10^−5 M, 48 h; read-out: Growth inhibition percentage
Summary of the method: as §1

OVCAR-4 = conditions: Homo sapiens; OVCAR-4 (ovarian cancer), single dose 10^−5 M, 48 h; read-out: Growth inhibition percentage
Summary of the method: as §1

IGROV1 = conditions: Homo sapiens, IGROV-1; IGROV1 (ovarian cancer), single dose 10^−5 M, 48 h; read-out: Growth inhibition percentage
Summary of the method: as §1

OVCAR-5 = conditions: Homo sapiens; OVCAR-5 (ovarian cancer), single dose 10^−5 M, 48 h; read-out: Growth inhibition percentage
Summary of the method: as §1

NCI-H322M = conditions: Homo sapiens; NCI-H322M (non-small cell lung cancer), single dose 10^−5 M, 48 h; read-out: Growth inhibition percentage
Summary of the method: as §1

OVCAR-8 = conditions: Homo sapiens; OVCAR-8 (ovarian cancer), single dose 10^−5 M, 48 h; read-out: Growth inhibition percentage
Summary of the method: as §1

HCC-2998 = conditions: Homo sapiens; HCC-2998 (colon cancer), single dose 10^−5 M, 48 h; read-out: Growth inhibition percentage
Summary of the method: as §1

PC-3 = conditions: Homo sapiens; PC-3 (prostate cancer), single dose 10^−5 M, 48 h; read-out: Growth inhibition percentage
Summary of the method: as §1

DU-145 = conditions: Homo sapiens; DU-145 (prostate cancer), single dose 10^−5 M, 48 h; read-out: Growth inhibition percentage
Summary of the method: as §1

MCF7 = conditions: Homo sapiens; MCF7 (breast cancer), single dose 10^−5 M, 48 h; read-out: Growth inhibition percentage
Summary of the method: as §1

U251 = conditions: Homo sapiens, U-251; U251 (CNS cancer), single dose 10^−5 M, 48 h; read-out: Growth inhibition percentage
Summary of the method: as §1

A498 = conditions: Homo sapiens; A498 (renal cancer), single dose 10^−5 M, 48 h; read-out: Growth inhibition percentage
Summary of the method: as §1

KM12 = conditions: Homo sapiens; KM12 (colon cancer), single dose 10^−5 M, 48 h; read-out: Growth inhibition percentage
Summary of the method: as §1

A549/ATCC = conditions: Homo sapiens; A549/ATCC (non-small cell lung cancer), single dose 10^−5 M, 48 h; read-out: Growth inhibition percentage
Summary of the method: as §1

SMILES	inhibition at 10 µM (SF-268)	inhibition at 10 µM (COLO 205)	inhibition at 10 µM (EKVX)	inhibition at 10 µM (OVCAR-3)	inhibition at 10 µM (LOX IMVI)	inhibition at 10 µM (SF-593)	inhibition at 10 µM (SK-MEL-28)	inhibition at 10 µM (NCI-H23)	inhibition at 10 µM (OVCAR-4)	inhibition at 10 µM (IGROV1)	inhibition at 10 µM (OVCAR-5)	inhibition at 10 µM (NCI-H322M)	inhibition at 10 µM (OVCAR-8)	inhibition at 10 µM (HCC-2998)	inhibition at 10 µM (PC-3)	inhibition at 10 µM (DU-145)	inhibition at 10 µM (MCF7)	inhibition at 10 µM (U251)	inhibition at 10 µM (A498)	inhibition at 10 µM (KM12)	also measured
Cc1nn(-c2ccc(F)cc2)c2ncnc(N)c12 [Compound 4, 1–(4-Fluorophenyl)-3-methyl-1H-pyrazolo[3,4-d]pyrimidin-4-amine]	3.71%	-18.4%	19.1%	-2.81%	1.75%	-1.06%	-3.55%	4.73%	-4.38%	11.1%	-4.61%	7.26%	-4.64%	-2.52%	1.03%	-7.26%	9.82%	-7.56%	0.68%	3.5%	inhibition at 10 µM (A549/ATCC): -4.88%
Cc1nn(-c2ccc(F)cc2)c2nc[nH]c(=O)c12 [Compound 3, 1–(4-Fluorophenyl)-3-methyl-1H-pyrazolo[3,4-d]pyrimidin-4(5H)-one]	-1.71%	-14.9%	36.2%	-5.82%	2.19%	-0.99%	-14.1%	4.09%	-8.19%	5.29%	-10.4%	5.19%	-0.16%	-2.16%	1.46%	-6.51%	2.7%	-1.7%	0.02%	1.48%	inhibition at 10 µM (A549/ATCC): -2.93%
COc1cc(C=NNc2ncnc3c2c(C)nn3-c2ccc(F)cc2)cc(OC)c1OC [Compound 10c, 1–(4-Fluorophenyl)-3-methyl-4–(2-(3,4,5-trimethoxybenzylidene)-hydrazinyl)-1H-pyrazolo[3,4-d]pyrimidine]	6.35%	-6.78%	10%	-0.3%	9.33%	13.2%	1.3%	14.2%	-8.66%	26.6%	-11.4%	13.5%	-1.23%	2.74%	16.5%	-4.94%	1.96%	0.92%	22%	5.82%	inhibition at 10 µM (A549/ATCC): -0.67%
Cc1nn(-c2ccc(F)cc2)c2ncnc(Nc3ccc(F)c(Cl)c3)c12 [Compound 7d, N-(3-Chloro-4-fluorophenyl)-1–(4-fluorophenyl)-3-methyl-1H-pyrazolo[3,4-d] pyrimidin-4-amine]	3.94%	-3.96%	14.5%	9.57%	8.68%	22.6%	-4.63%	7.53%	53.1%	27.6%	4.92%	12%	16.6%	1.79%	17.2%	-3.13%	15.7%	24%	-5.43%	1.96%	inhibition at 10 µM (A549/ATCC): 40.5%
